Data from US20130210887A1, “DENDRIMERS AS NON-VIRAL VEHICLES FOR GENE THERAPY” (UNIVERSIDAD DE CASTILLA LA MANCHA, priority 2010, published 2013).

Tested on: siRNA
Experiment: Gel shift (electrophoretic shift in agarose gel) of siRNA by coupling to the dendrimer
Type: binding
Settings: 2 μM siRNA; 30 min incubation at ambient temperature; 1% agarose gel, 15 min at 60V
Excerpt: FIG. 1, relates to the electrophoretic shift analysis of siRNA by the coupling to the compound of general formula (I). The numbers in (A) correspond to different N/P ratios (nitrogenated amines in compound of general formula (0/phosphates in siRNA): (1) 1:0 (siRNA alone), (2) 6:1, (3) 12:1, (4) 24:1, (5) 48:1, (6) 96:1, (7) 192:1 and (8) 384:1. The densitometric analysis of the results of the gel shift experiment are shown in (B).
The compound complexes of general formula (I)-siRNA were formed by mixing equal quantities of volume of the solution that contained compound of general formula (I) and of that containing the siRNA (Org Biomol Chem. 2007. 5: 1886-1893; Pharm Res. 2009. 26: 1181-1191), and incubating the mixture under stirring during 30 minutes at ambient temperature. Both molecules were dissolved in DEPC water (free from RNAses).
The shift in agarose gel was used to ascertain the N/P ratio (nitrogenated amines in compound of general formula (I)/phosphates in siRNA) adapted to obtain the greatest efficacy of bonding possible between both molecules (Mol Biol Rep. 2009. 36: 1083-1093; Am J Med Genet B Neuropsychiatr Genet. 2008. 147B: 769-777). The mixing of different concentrations of compound of general formula (I) and of 250 ng of siRNA was tested. […] The gels were photographed and the bands were quantified with a suitable image analysis system (Quantity One). […]

Compound: NCCNC(=O)CCN(CCC(=O)NCCN)CCN(CCC(=O)NCCN)Cc1ccc(/C=C/c2cc(/C=C/c3ccc(CN(CCC(=O)NCCN)CCN(CCC(=O)NCCN)CCC(=O)NCCN)cc3)cc(/C=C/c3ccc(CN(CCC(=O)NCCN)CCN(CCC(=O)NCCN)CCC(=O)NCCN)cc3)c2)cc1 [compound of general formula (I)]
- concentration of compound of general formula (I) at which all the siRNA is fixed (P/N ratio of 12:1): 22 µM
